Test [1] relates to isolated rabbit urinary bladder. The experiment in a line: Relaxation effect on potassium-induced contraction of isolated rabbit urinary bladder. It is filed as cell-based. The note with it: Oryctolagus cuniculus; 50% relaxation concentration; high-K+ (30 mM) pre-contracted rabbit bladder strips; relaxation as percentage of the maximum produced by 0.1 mM papaverine; read-out: EC50 value range. As for the experimental part: Relaxation effect on potassium-induced contraction of isolated rabbit urinary bladder
Urinary bladder was isolated from Male NZW rabbits (2.0-3.5 kg) and immersed in ice-cold Krebs-bicarbonate solution (in mM: 118 NaCl, 4.7 KCl, 1.2, 2.5 CaCl2, MgSO4, 1.2 KH2PO4, 11 glucose, 25 NaHCO3). The urinary bladder was cut into longitudinal strips (5 mm length, 3-4 mm width) after mucosal layer was removed. Preparations were mounted in organ baths containing 10 ml of Krebs solution maintained at 37° C. and gassed with 95% O2/5% CO2. Accordingly, preparations were stretched with an initial tension of 2.0±1.0 g, and changes in isometric tension were measured by force-displacement transducer. The preparations were pre-contracted by changing organ-bath solution into high-K^+ (30 mM) Krebs solution (in mM: 92.7 NaCl, 30 KCl, 1.2, 2.5 CaCl2, MgSO4, 1.2 KH2PO4, 11 glucose, 25 NaHCO3).
After stable tension was obtained, compounds were added into organ baths cumulatively (10^−8M-10^−4M). The effects of compounds were expressed as a percentage of the maximum relaxation produced by 0.1 mM papaverine. 50% relaxation concentration (EC50) was calculated and EC50 value range (μM) of the compounds of the present invention was shown in the following Table 64 with a rank of A, B or C. These ranges are as mentioned below. 3≧C≧1≧B≧0.5≧A

The subject of test [2] is rhythmic bladder contractions induced by substance P. Nature of the test: Inhibitory effect on the rhythmic bladder contractions induced by substance P in anesthetized rats. The test is classed as in vivo, rat. The note with it: time during which frequency of rhythmic contraction was completely inhibited, 0.25 mg/kg of the compound, substance P infusion. The essentials:
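Value is duration (min) of complete inhibition of bladder contractions, ranked A/B/C at 20 and 10 min cut-offs. Intravenous dosing (0.5% Tween 80 saline) in female SD rats under urethane, bladder saline-filled and contractions maintained by substance P infusion, 0.33 μg/kg/min.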

Here are results for 40 molecules from patent US7759373B2, “Large conductance calcium-activated K channel opener” (Mitsubishi Tanabe Pharma Corporation, priority 2001, dated 2010).

The structures appear in SMILES notation.

As usually defined, the EC50 is the concentration giving half of the maximal effect. In the case of `CCOc1ccc(-c2nc(-c3ccc(Cl)s3)c(CC(=O)O)s2)cn1` [Preparation Example 586], the EC50 in test [1] is ≤ 500 nM. The “100% inhibition time range” value in test [2] is listed as “B (A≧20>B≧10>C (minute))”.

With `COc1ccc(-c2nc(CC(=O)O)c(-c3ccc(Cl)s3)s2)cc1` [Preparation Example 609], the EC50 in test [1] fell in the range of 500 to 1000 nM. The “100% inhibition time range” value in test [2] is reported as “B (A≧20>B≧10>C (minute))”.

As for `O=C([O-])Cc1nc(-c2ccc(F)cc2)oc1-c1ccc(Cl)s1.[Na+]` [Preparation Example 152, 5-(5-chloro-thiophen-2-yl)-2-(4-fluorophenyl)oxazol-4-yl acetic acid sodium salt], the EC50 in test [1] is 1000 to 3000 nM. In addition, the “100% inhibition time range” value in test [2] is on record as “B (A≧20>B≧10>C (minute))”.

In the case of `CN(C)c1ncc(-c2nc(CC(=O)O)c(-c3ccc(Cl)s3)o2)cn1` [Preparation Example 362], the concentration for a half-maximal effect (EC50) in test [1] was in the range of 1000 to 3000 nM. In test [2], the “100% inhibition time range” value was “A (A≧20>B≧10>C (minute))”.

In the case of `Cc1ccc(-c2nc(CC(=O)O)c(-c3ccc(Cl)s3)o2)cn1` [Preparation Example 452], in test [1], the EC50 is ≤ 500 nM. For the same molecule, in test [2], the “100% inhibition time range” value is given as “B (A≧20>B≧10>C (minute))”.

Regarding `O=C(O)Cc1nc(-c2ccc(F)cc2)oc1-c1ccc(C(F)(F)F)cc1` [Preparation Example 244], the EC50 in test [1] fell in the range of 1000 to 3000 nM. Moreover, the “100% inhibition time range” value in test [2] was “B (A≧20>B≧10>C (minute))”.

For the molecule `CN(C)c1ccc(-c2nc(-c3ccc(Cl)cc3)c(CC(=O)O)o2)cn1` [Preparation Example 514], the EC50 in test [1] lay in the range of 500 to 1000 nM. Moreover, in test [2], the “100% inhibition time range” value is given as “B (A≧20>B≧10>C (minute))”.

As to `O=C([O-])Cc1oc(-c2ccc(F)cc2)nc1-c1ccc(Cl)s1.[Na+]` [Preparation Example 487, 4-(5-chloro-thiophen-2-yl)-2-(4-fluorophenyl)oxazol-5-yl acetic acid sodium salt], the EC50 in test [1] was 500 to 1000 nM. Also, in test [2], the “100% inhibition time range” value was “C (A≧20>B≧10>C (minute))”.

On to `CN(C)c1ccc(-c2nc(-c3ccsc3)c(CC(=O)O)s2)cn1` [Preparation Example 596], for which the EC50 in test [1] lay in the range of 1000 to 3000 nM. The “100% inhibition time range” value in test [2] is “B (A≧20>B≧10>C (minute))”.

Take `COc1ccc(-c2nc(CC(=O)O)c(-c3ccsc3)o2)cc1C` [Preparation Example 438]: in test [1], the EC50 was in the range of 1000 to 3000 nM. In test [2], the “100% inhibition time range” value is “C (A≧20>B≧10>C (minute))”.

Regarding `CCc1nc(-c2ccc(F)cc2)[nH]c1-c1ncccn1` [Preparation example 50], the EC50 in test [1] was in the range of 1000 to 3000 nM. The “100% inhibition time range” value in test [2] is listed as “C (A≧20>B≧10>C (minute))”.

As for `CN(C)c1ncc(-c2nc(CC(=O)O)c(-c3ccc(Cl)cc3)o2)cn1` [Preparation Example 473], the EC50 in test [1] was 500 to 1000 nM. Besides, the “100% inhibition time range” value in test [2] was “A (A≧20>B≧10>C (minute))”.

Consider `Cc1nc(-c2ccc(F)cc2)[nH]c1-c1cccnc1` [Preparation Example 187], for which the EC50 in test [1] is 500 to 1000 nM. Besides, the “100% inhibition time range” value in test [2] is recorded as “B (A≧20>B≧10>C (minute))”.

Regarding `CN(C)c1ncc(-c2nc(-c3ccc(Cl)s3)c(CC(=O)O)s2)cn1` [Preparation Example 600], the EC50 in test [1] was ≤ 500 nM. In addition, the “100% inhibition time range” value in test [2] is reported as “A (A≧20>B≧10>C (minute))”.

As for `CNC(=O)Cc1nc(-c2ccc(F)cc2)oc1-c1ccsc1` [Preparation Example 374], the EC50 in test [1] was in the range of 1000 to 3000 nM. Besides, in test [2], the “100% inhibition time range” value is “C (A≧20>B≧10>C (minute))”.

Turning to `CN(C)c1ncc(-c2nc(-c3ccc(Cl)s3)c(CC(=O)O)o2)cn1` [Preparation Example 512], in test [1], the EC50 lay in the range of 500 to 1000 nM. Further, in test [2], the “100% inhibition time range” value is reported as “B (A≧20>B≧10>C (minute))”.

As for `COc1ccc(-c2nc(CC(=O)O)c(-c3cccs3)o2)cc1F` [Preparation Example 431], the EC50 in test [1] is 500 to 1000 nM. The “100% inhibition time range” value in test [2] is “B (A≧20>B≧10>C (minute))”.

Consider `O=C(O)Cc1nc(-c2ccc3occc3c2)oc1-c1ccsc1` [Preparation Example 255], for which the EC50 in test [1] fell in the range of 1000 to 3000 nM. Moreover, the “100% inhibition time range” value in test [2] is recorded as “B (A≧20>B≧10>C (minute))”.

As to `CCc1nc(-c2ccc(F)cc2)[nH]c1-c1cncs1` [Preparation example 86], the EC50 in test [1] was 500 to 1000 nM. In test [2], the “100% inhibition time range” value is “B (A≧20>B≧10>C (minute))”.

Consider `COc1ccc(-c2nc(CC(=O)O)c(-c3ccc(Cl)s3)o2)cc1Cl` [Preparation Example 280], for which, in test [1], the EC50 is ≤ 500 nM. The “100% inhibition time range” value in test [2] is on record as “C (A≧20>B≧10>C (minute))”.

In the case of `O=C(O)Cc1nc(-c2ccc(F)cc2)oc1-c1ccc(Br)s1` [Preparation Example 256], the EC50 in test [1] is ≤ 500 nM. Besides, the “100% inhibition time range” value in test [2] is given as “C (A≧20>B≧10>C (minute))”.

For the molecule `O=C(O)Cc1nc(-c2ccc3occc3c2)oc1-c1cccs1` [Preparation Example 269], in test [1], the EC50 was ≤ 500 nM. Also, in test [2], the “100% inhibition time range” value was “B (A≧20>B≧10>C (minute))”.

In the case of `CN(C)c1ccc(-c2nc(CC(=O)O)c(-c3ccc(Cl)s3)o2)cc1` [Preparation Example 441], the EC50 in test [1] is 1000 to 3000 nM. The “100% inhibition time range” value in test [2] is reported as “B (A≧20>B≧10>C (minute))”.

Take `Cc1ccc(-c2nc(CC(=O)O)c(-c3ccc(Cl)s3)o2)s1` [Preparation Example 458]: the concentration giving a half-maximal response (EC50) in test [1] is ≤ 500 nM. Further, the “100% inhibition time range” value in test [2] was “B (A≧20>B≧10>C (minute))”.

For the molecule `O=C(O)Cc1nc(-c2ccc(F)cc2)oc1-c1ccsc1` [Preparation Example 197], the EC50 in test [1] was in the range of 1000 to 3000 nM. Moreover, the “100% inhibition time range” value in test [2] is “C (A≧20>B≧10>C (minute))”.

Turning to `O=C(O)Cc1nc(-c2cc3ccccc3s2)oc1-c1cccs1` [Preparation Example 267], the EC50 in test [1] is ≤ 500 nM. Besides, the “100% inhibition time range” value in test [2] was “C (A≧20>B≧10>C (minute))”.

For the molecule `CCCc1nc(-c2cccc(F)c2)[nH]c1-c1ccccc1` [Preparation example 30], the EC50 in test [1] is 1000 to 3000 nM. For the same molecule, the “100% inhibition time range” value in test [2] is recorded as “B (A≧20>B≧10>C (minute))”.

In the case of `CS(=O)(=O)NCCc1nc(-c2ccc(F)cc2)oc1-c1ccsc1.[Na]` [Preparation Example 378, 2-(4-fluoro-phenyl)-4-methanesulfonylaminoethyl-5-(3-thienyl)oxazole sodium salt], the EC50 in test [1] lay in the range of 1000 to 3000 nM. Moreover, in test [2], the “100% inhibition time range” value was “C (A≧20>B≧10>C (minute))”.

`O=C(O)Cc1sc(-c2cc3ccccc3s2)nc1-c1ccc(Cl)cc1` [Preparation Example 574]: in test [1], the EC50 was in the range of 1000 to 3000 nM. In addition, the “100% inhibition time range” value in test [2] is on record as “B (A≧20>B≧10>C (minute))”.

Consider `Cc1nc(-c2csc(Cl)c2)[nH]c1-c1cccnc1` [Preparation example 54], for which the EC50 in test [1] fell in the range of 1000 to 3000 nM. In test [2], the “100% inhibition time range” value was “B (A≧20>B≧10>C (minute))”.

`C[S+]([O-])Cc1nc(-c2cccc(F)c2)[nH]c1-c1ccccc1` (centres unmarked) [Preparation example 136]: the EC50 in test [1] was in the range of 500 to 1000 nM. Besides, the “100% inhibition time range” value in test [2] is on record as “C (A≧20>B≧10>C (minute))”.

On to `CN(C)c1ccc(-c2nc(-c3ccc(Cl)s3)c(CC(=O)O)o2)cn1` [Preparation Example 504], for which the EC50 in test [1] was in the range of 1000 to 3000 nM. Also, the “100% inhibition time range” value in test [2] is on record as “C (A≧20>B≧10>C (minute))”.

For `Cc1cc(-c2oc(-c3ccc(F)cc3)nc2CC(=O)O)sc1Cl` [Preparation Example 257], the EC50 in test [1] was ≤ 500 nM. Besides, the “100% inhibition time range” value in test [2] is recorded as “B (A≧20>B≧10>C (minute))”.

Take `O=C(O)Cc1nc(-c2ccc(F)cc2)oc1-c1cccc(F)c1F` [Preparation Example 252]: the EC50 in test [1] lay within 500 to 1000 nM. Also, the “100% inhibition time range” value in test [2] is reported as “C (A≧20>B≧10>C (minute))”.

`Cc1ccc(-c2nc(CC(=O)O)c(-c3ccccc3)o2)cc1` [Preparation Example 262]: the EC50 in test [1] was in the range of 1000 to 3000 nM. For the same molecule, in test [2], the “100% inhibition time range” value is on record as “C (A≧20>B≧10>C (minute))”.

For `CN1CCc2cc(-c3nc(CC(=O)O)c(-c4ccc(Cl)s4)o3)ccc21` [Preparation Example 453], the EC50 in test [1] was in the range of 500 to 1000 nM. The “100% inhibition time range” value in test [2] is “C (A≧20>B≧10>C (minute))”.

Regarding `CCCc1nc(-c2ccc(F)cc2)[nH]c1-c1ccc(N(C)C)cc1` [Preparation example 90], in test [1], the EC50 was in the range of 1000 to 3000 nM. The “100% inhibition time range” value in test [2] is on record as “B (A≧20>B≧10>C (minute))”.

Consider `Cc1ccc(-c2nc(CC(=O)O)c(-c3cccs3)o2)s1` [Preparation Example 268], for which the EC50 in test [1] is ≤ 500 nM. Also, the “100% inhibition time range” value in test [2] is reported as “C (A≧20>B≧10>C (minute))”.

In the case of `CCc1[nH]c(-c2ccsc2C(C)O)nc1-c1cccnc1.Cl.Cl` (centres unmarked) [Preparation Example 486, 2-[2-(1-hydroxyethyl)thiophen-3-yl]-5-ethyl-4-(3-pyridyl)-imidazole dihydrochloride], the EC50 in test [1] was in the range of 1000 to 3000 nM. For the same molecule, in test [2], the “100% inhibition time range” value was “B (A≧20>B≧10>C (minute))”.

Consider `Cc1cc(-c2nc(-c3ccc(Cl)s3)c(CC(=O)O)s2)sc1C` [Preparation Example 587], for which the EC50 in test [1] was 500 to 1000 nM. Besides, the “100% inhibition time range” value in test [2] is reported as “A (A≧20>B≧10>C (minute))”.
